Experimental data taken from ChEMBL document CHEMBL2073810, “Mrp2 is essential for estradiol-17beta(beta-D-glucuronide)-induced cholestasis in rats” (Hepatology, 2000).

What was measured:
Type in all cases: functional, cell membranes, Membrane vesicle
Bile salt export pump [1] = target: T1, Bile salt export pump (Rattus norvegicus, UniProt O70127); experiment: TP_TRANSPORTER: inhibition of Taurocholate uptake (Taurochorate: 1 uM, E217betaG: 50 uM) in membrane vesicles from Bsep-expressing Sf9 cells; conditions: sf9, 50 µM
T1 sequence (O70127 whole entry): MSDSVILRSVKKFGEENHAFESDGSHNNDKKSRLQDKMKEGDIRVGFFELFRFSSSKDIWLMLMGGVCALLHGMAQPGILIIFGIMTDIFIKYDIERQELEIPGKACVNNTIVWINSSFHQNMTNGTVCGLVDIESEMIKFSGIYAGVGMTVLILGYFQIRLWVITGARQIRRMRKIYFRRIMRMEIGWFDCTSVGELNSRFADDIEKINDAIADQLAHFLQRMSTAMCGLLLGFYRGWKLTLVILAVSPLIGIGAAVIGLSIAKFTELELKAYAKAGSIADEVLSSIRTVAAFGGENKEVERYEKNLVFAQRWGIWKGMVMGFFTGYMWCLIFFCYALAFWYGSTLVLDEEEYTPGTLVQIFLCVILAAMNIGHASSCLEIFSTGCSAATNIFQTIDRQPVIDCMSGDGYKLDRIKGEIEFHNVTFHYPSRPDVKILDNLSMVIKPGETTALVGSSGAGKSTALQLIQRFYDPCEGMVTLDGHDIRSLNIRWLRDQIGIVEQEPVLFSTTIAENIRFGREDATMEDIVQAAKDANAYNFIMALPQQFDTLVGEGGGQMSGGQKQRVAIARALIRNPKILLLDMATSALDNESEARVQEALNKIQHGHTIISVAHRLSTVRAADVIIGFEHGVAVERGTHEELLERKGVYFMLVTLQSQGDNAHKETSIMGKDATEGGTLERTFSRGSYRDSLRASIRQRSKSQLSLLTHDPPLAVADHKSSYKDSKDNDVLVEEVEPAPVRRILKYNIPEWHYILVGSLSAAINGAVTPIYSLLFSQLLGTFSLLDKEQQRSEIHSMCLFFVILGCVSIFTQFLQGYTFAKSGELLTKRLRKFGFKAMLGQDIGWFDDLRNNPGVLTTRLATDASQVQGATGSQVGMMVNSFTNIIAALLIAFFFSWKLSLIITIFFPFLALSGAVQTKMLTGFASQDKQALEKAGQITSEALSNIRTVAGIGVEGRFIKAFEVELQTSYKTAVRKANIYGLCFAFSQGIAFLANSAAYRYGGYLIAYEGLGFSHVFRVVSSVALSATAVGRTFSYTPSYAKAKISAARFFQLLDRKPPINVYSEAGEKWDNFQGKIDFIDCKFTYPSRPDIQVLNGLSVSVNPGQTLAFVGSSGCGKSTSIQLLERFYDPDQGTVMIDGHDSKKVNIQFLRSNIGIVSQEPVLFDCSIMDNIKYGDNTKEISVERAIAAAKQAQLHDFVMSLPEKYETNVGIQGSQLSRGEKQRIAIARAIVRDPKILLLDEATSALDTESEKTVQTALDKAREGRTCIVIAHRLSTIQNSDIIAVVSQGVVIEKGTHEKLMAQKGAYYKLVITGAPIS

Bile salt export pump [2] = target: T1, Bile salt export pump; experiment: TP_TRANSPORTER: inhibition of Taurocholate uptake (Taurochorate: 1uM, Ethinyl estradiol: 25 uM) in membrane vesicles from Bsep-expressing Sf9 cells; conditions: sf9, 25 µM
Bile salt export pump [3] = target: T1, Bile salt export pump; experiment: TP_TRANSPORTER: inhibition of Taurocholate uptake (Taurochorate: 100 uM, TLC: 10 uM) in membrane vesicles from Bsep-expressing Sf9 cells; conditions: sf9, 10 µM

C[C@]12CC[C@@H]3c4ccc(O)cc4CC[C@H]3[C@@H]1CC[C@@H]2O[C@@H]1O[C@H](C(=O)O)[C@@H](O)[C@H](O)[C@H]1O [ESTRADIOL 17B GLUCURONIDE]
Activity (Bile salt export pump [1]): is not an inhibitor [-]

C#C[C@]1(O)CC[C@H]2[C@@H]3CCc4cc(O)ccc4[C@H]3CC[C@@]21C [ETHINYL ESTRADIOL]
Activity (Bile salt export pump [2]): is not an inhibitor [-]

C[C@H](CCC(=O)NCCS(=O)(=O)O)[C@H]1CC[C@H]2[C@@H]3CC[C@@H]4C[C@H](O)CC[C@]4(C)[C@H]3CC[C@]12C [TAUROLITHOCHOLIC ACID]
Activity (Bile salt export pump [3]): inhibitor [+]
